From patent US20250179024A1, “AMYLOID AND ASSOCIATED PATHOLOGY MODULATORS AND METHODS THEREOF” (Jawaharlal Nehru Centre for Advanced Scientific Research, priority 2022, published 2025)

Key:
Aβ oligomers = biological target: T1, Aβ oligomers (Homo sapiens, UniProt P05067); assay: Dot blot assay of Aβ oligomer inhibition (A11 antibody); type: biochemical; settings: Aβ 10 μM, NMIs 20 μM, 4° C., 24 h
T1 construct: is a 42 amino acid proteolytic product from the amyloid precursor protein; purchased Invitrogen
T1 sequence (P05067 672-713 limits assumed): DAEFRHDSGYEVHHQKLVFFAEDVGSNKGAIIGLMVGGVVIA
Procedure: Aggregation modulation by toxic Aβ aggregates were assessed and were quantified by dot blot assay. Aβ peptide (10 μM) was dissolved in phosphate buffered saline (PBS, 10 mM, pH 7.4), incubated alone and with NMIs (20 μM) at 37° C. for 48 h. For concentration dependent inhibition, 10 μM Aβ peptide was incubated with 1, 2, 5, 10 and 20 μM of NMIs and incubated. Samples for oligomer inhibition studies were prepared by incubating Aβ alone and with NMIs at 4° C. for 24 and subjected to dot blot analysis. For dissolution studies, Aβ peptide alone was incubated in PBS for 48 h to prepare fibrils and then incubated with NMIs further for 48 h. For dot blot experiment, 5 μL of sample was blotted on activated PVDF (polyvinylidene fluoride) membrane in triplicates and air dried. The membrane was blocked with skimmed milk powder for 1 h at room temperature. The blot paper was washed with tris-buffered saline with 0.01% Tween 20 (TBST) three times for 5 min. Blot paper was treated with fibril specific OC primary antibody (Rabbit, 1:1000 dilution) overnight at 4° C. For oligomers blot A11 anti-oligomer antibody (Rabbit 1:1000) was used. […] Blots were analyzed and quantified by ImageJ software. […] The ability of NMIs (M3) to inhibit the formation of Aβ oligomers was assessed by dot blot assay. […]

IL6 = assay: Western blot of IL6 in C6 microglia; type: cell-based; settings: LPS 500 ng/mL, Aβ 5 μM, compound 10 μM; changes statistically insignificant
Procedure: (§1) Western blot analysis was performed to analyse the changes in the protein levels from cell lysates. SH-SY5Y and C6 cells were cultured to 80% confluence in T25 flask, trypsinised and seed into 12 well plate. The cells were cultured for 30 h and then treated with LPS (500 ng/mL) in low serum media for 6 h. Then the cells were treated with Aβ42 (5 μM) alone and with NMIs (M3) (10 μM) for 18 h. The cells were harvested by trypsinisation and the protein was extracted in RIPA lysis buffer with protease inhibitor cocktail (1×). Briefly cells were washed with dPBS and lysed in […] of RIPA lysis buffer with gentle shaking in 4° C. for 30 min. Then the cells were centrifuged at 16000 g for 20 min and the supernatant containing protein was collected and quantified by Bradford assay. The protein lysate was subjected to SDS-PAGE (12% resolving gel) and transferred to PVDF membrane. The blot paper was blocked with 5% skim milk powder for 1 h at room temperature and then washed thrice with TBST. The blots were incubated with primary antibodies for 20 h at 4° C. The blots were washed thrice with TBST for 5 min and then incubated with anti-rabbit HRP-conjugated secondary antibodies for 1 h at room temperature. […] All the western blots were quantified by using ImageJ, data was plotted and analysed by GraphPad prism5. […]

SH-SY5Y cells = assay: Imaging of mitochondrial structural changes, Mito-TG; type: cell-based; settings: Aβ 20 μM, 18 h, Mito-TG staining
Procedure: The effect of NMIs (M3) on Aβ induced structural damage to mitochondria was assessed and Mito-TG probe was used for imaging mitochondria. SH-SY5Y cells were seeded onto confocal dishes and incubated for 24 h. Then cells were treated with Aβ (20 μM) alone and with M3 (50 μM) and incubated for […]. Followed by PBS washing, and stained with Mito-TG (250 nM) for 20 min. Cells were washed thrice with dPBS and imaged in live cell set up in rhodamine channel using 63× oil immersion using Leica DMi8 fluorescence microscope.
Aβ-associated functional abnormalities induced structural defects in mitochondria. The effect of M3 to prevent structural damage was assessed by staining the cells with Mito-TG, a mitochondrial probe. The cells were treated with Aβ (20 μM) alone and with M3 for 18 h, followed by Mito-TG staining and fluorescence microscopic imaging to visualize the structural changes. The Aβ treatment deformed mitochondria with fragmented morphology in comparison to the long tubular structure of healthy cells (FIG. 14C). […] Collectively, these structural and functional studies of mitochondria confirmed that M3 is a potential modulator of Aβ-induced toxicity to protect mitochondrial damage.

TNFα = assay: Western blot of TNFα in C6 microglia; type: cell-based; settings: LPS 500 ng/mL, Aβ 5 μM, compound 10 μM; Aβ alone 2.35 fold
Procedure: as §1

NF-kβ = assay: Western blot of NF-kβ in C6 microglia; type: cell-based; settings: LPS 500 ng/mL, Aβ 5 μM, compound 10 μM; Aβ alone 2.62 fold
Procedure: Western blot analysis was performed to analyse the changes in the protein levels from cell lysates. SH-SY5Y and C6 cells were cultured to 80% confluence in T25 flask, trypsinised and seed into 12 well plate. The cells were cultured for 30 h and then treated with LPS (500 ng/mL) in low serum media for 6 h. Then the cells were treated with Aβ42 (5 μM) alone and with NMIs (M3) (10 μM) for 18 h. The cells were harvested by trypsinisation and the protein was extracted in RIPA lysis buffer with protease inhibitor cocktail (1×). Briefly cells were washed with dPBS and lysed in […] of RIPA lysis buffer with gentle shaking in 4° C. for 30 min. Then the cells were centrifuged at 16000 g for 20 min and the supernatant containing protein was collected and quantified by Bradford assay. The protein lysate was subjected to SDS-PAGE (12% resolving gel) and transferred to PVDF membrane. The blot paper was blocked with 5% skim milk powder for 1 h at room temperature and then washed thrice with TBST. […] All the western blots were quantified by using ImageJ, data was plotted and analysed by GraphPad prism5.
NF-kβ is a tangible drug target for neuroinflammation and AD. […] C6 microglia were primed with LPS (500 ng/mL) followed by Aβ (5 μM) treatment to induce inflammation, which was monitored by the change in NF-kβ levels in western blot analysis (FIG. 16F).

CN(C)c1ccc2c3c(cccc13)C(=O)N(CCc1ccc(O)c(O)c1)C2=O [M1, 2-(3,4-dihydroxyphenethyl)-6-(dimethylamino)-1H-benzo[de]isoquinoline-1,3(2H)-dione]
oligomer inhibition (Aβ oligomers): 33%

O=C1c2cccc3c(N(Cc4ccccn4)Cc4ccccn4)ccc(c23)C(=O)N1CCc1ccc(O)c(O)c1 [M3, 6-(bis(pyridin-2-ylmethyl)amino)-2-(3,4-dihydroxyphenethyl)-1H-benzo[de]isoquinoline-1,3(2H)-dione]
IL6 level (IL6): reduced
mitochondrial structure (SH-SY5Y cells): protected normal long tubular structures
TNFα level in comparison to control (TNFα): 1.47 fold
NF-kβ level compared to control (NF-kβ): 1.78 fold
